{"source": "patent US6638726B1", "about": "“Screening methods for compounds useful in the treatment of polycystic kidney disease” (Mount Sinai School of Medicine of New York University, priority 2000, dated 2003)", "test_system": "ADPKD cells", "assay": "modified Boyden chamber motility assay", "assay_type": "cell-based, human", "settings": "cells treated for 2 days with 10 mM LiCl, migration through 8 μM pores, 1%-5% FBS gradient, fluorescent microplate quantification, compared with NHCT and NHTAL controls", "protocol": "To assay for cell motility a number of different assays may be used, including but not limited to, standard migratory assays on slides or using modified Boyden chambers. Such assay systems are described in further detail in a working example of the present specification (See, Example 7).\nUsing a modified Boyden chamber motility assay human renal epithelial cells and ADPKD cells were plated (5000 cells/membrane) in the upper chamber and allowed to migrate through 8 μM pores for 0-15 hours in response to a 1%-5% FBS gradient. All primary and differentiated conditionally immortalized cell types migrate in a a time-dependent fashion but more normal adult collecting tubule (NHCT) and thick ascending limb (NHTAL) cells appeared in the lower chamber than ADPKD epithelia, 975±10 (NHCT), 1060±(NHTAL) versus 426±20 (ADPKD). The effect of lithium on renal epithelial cell motility was assessed. Calcein-AM (Goldberg, A. Fluorescent Blocking Membrane Enhances Analyses of Cell-Based Assay. Becton Dickinson Techniques Bulletin #429) labeled cells were treated for 2 days±10 mM LICL and then plated onto membranes as described above.", "data": [{"smiles": "[Cl-].[Li+]", "note": "[LiCl, lithium chloride]", "values": [{"measurement": "motility of ADPKD cells", "value": "significantly increased the motility of ADPKD cells"}, {"measurement": "motility of ADPKD cells", "setting": "listed as Lithium", "value": "increases the motility of ADPKD cells to the level observed for NHCT (CT) cells"}, {"measurement": "motility of ADPKD cells", "setting": "listed as lithium", "value": "decreased epithelial cell motility can be reversed"}, {"measurement": "motility of ADPKD cells", "setting": "listed as lithium chloride", "value": "increase the motility of ADPKD cells to almost normal levels"}]}]}
